We go through two substances from patent US6258790A, “Antisense modulation of integrin α4 expression” (Isis Pharmaceuticals, Inc., priority 1999, dated 2001).

One data set relates to human integrin α4. Description: Inhibition of human integrin α4 protein levels by antisense oligonucleotides (LIPOFECTIN, flow cytometry with CD49d-FITC) in A375 melanoma cells. It is filed as cell-based. A general note: In flow cytometry, cells or beads pass a laser one at a time.
The next data set concerns human integrin α4 mRNA. Description: Integrin α4 mRNA levels in A375 melanoma cells by real-time quantitative PCR. It is filed as cell-based. The note with it: 24 hours, electroporation. The procedure:
Quantitation of integrin α4 mRNA levels was performed by real-time quantitative PCR using the ABI PRISM™ 7700 Sequence Detection System (PE-Applied Biosystems, Foster City, Calif.) according to manufacturer's instructions. This is a closed-tube, non-gel-based, fluorescence detection system which allows high-throughput quantitation of polymerase chain reaction (PCR) products in real-time. As opposed to standard PCR, in which amplification products are quantitated after the PCR is completed, products in real-time quantitative PCR are quantitated as they accumulate. This is accomplished by including in the PCR reaction an oligonucleotide probe that anneals specifically between the forward and reverse PCR primers, and contains two fluorescent dyes. A reporter dye (e.g., JOE or FAM, obtained from either Operon Technologies Inc., Alameda, Calif. or PE-Applied Biosystems, Foster City, Calif.) is attached to the 5' end of the probe and a quencher dye (e.g., TAMRA, obtained from either Operon Technologies Inc., Alameda, Calif. or PE-Applied Biosystems, Foster City, Calif.) is attached to the 3' end of the probe. When the probe and dyes are intact, reporter dye emission is quenched by the proximity of the 3' quencher dye. During amplification, annealing of the probe to the target sequence creates a substrate that can be cleaved by the 5'-exonuclease activity of Taq polymerase. […] With each cycle, additional reporter dye molecules are cleaved from their respective probes, and the fluorescence intensity is monitored at regular intervals by laser optics built into the ABI PRISM™ 7700 Sequence Detection System. In each assay, a series of parallel reactions containing serial dilutions of mRNA from untreated control samples generates a standard curve that is used to quantitate the percent inhibition after antisense oligonucleotide treatment of test samples.
PCR reagents were obtained from PE-Applied Biosystems, Foster City, Calif. RT-PCR reactions were carried out by adding 20 μL PCR cocktail (1×TAQMANT buffer A, 5.5 mM MgCl2, 300 μM each of dATP, dCTP and dGTP, 600 μM of dUTP, 400 nM each of forward primer and reverse primer (or 100 nM in the case of G3PDH), 100 nM probe, 20 Units RNAse inhibitor, 1.25 Units AMPLITAQ GOLD™, and 12.5 Units MuLV reverse transcriptase) to 5 μL (100 ng) total mRNA solution, purified using the RNEasy™ kit (Qiagen, Valencia Calif.). The RT reaction was carried out by incubation for 30 minutes at 48° C. Following a 10 minute incubation at 95° C. to activate the AMPLITAQ GOLD™, 40 cycles of a two-step PCR protocol were carried out: 95° C. for 15 seconds (denaturation) followed by 60° C. for 1.5 minutes (annealing/extension). Integrin α4 probes and primers were designed to hybridize to the human integrin α4 sequence, using published sequence information (GenBank accession number L12002), incorporated herein as SEQ ID NO:1).
For integrin α4 the PCR primers were: forward primer: GACACGCTGCGCCTCAT (SEQ ID NO: 94, hybridizes at position 319-335 of Genbank accession no. L12002) reverse primer: […] (SEQ ID NO: 95, hybridizes at position 391-412 of Genbank accession no. L12002) and the PCR probe was: FAM-[…]-TAMRA (probe is SEQ ID NO: 96; hybridizes at position 361-382 of Genbank accession no. L12002) where FAM (PE-Applied Biosystems, Foster City, Calif.) is the fluorescent reporter dye) and TAMRA (PE-Applied Biosystems, Foster City, Calif.) is the quencher dye. […]

On to “17044 (CCGCAGCCATGCGCTCTTGG; phosphorothioate, 2'-MOE/deoxy, further chemistry not given here) [compound 17044]”, for which the “% Control” value in the data set with human integrin α4 (Table 4, 10 nM) is 86%; in the data set on human integrin α4 (Table 4, 30 nM), 73%; with human integrin α4 (Table 4, 100 nM), 60%; in the data set on human integrin α4 (Table 4, 300 nM) it was 58%; in the data set with human integrin α4 (Table 6, 10 nM), 97%; in the data set with human integrin α4 (Table 6, 30 nM) it was 84%. Moreover, the “% Control” value in the data set with human integrin α4 (Table 6, 100 nM) was 68%; in the data set with human integrin α4 (Table 6, 300 nM), 39%. Further, the “% Inhib.” value in the data set with human integrin α4 (Table 4, 10 nM) is reported as 14%; in the data set with human integrin α4 (Table 4, 30 nM) it was 27%; with human integrin α4 (Table 4, 100 nM), 40%; in the data set with human integrin α4 (Table 4, 300 nM (highest dose)) it was 42%; with human integrin α4 (Table 6, 30 nM) it was 16%; with human integrin α4 (Table 6, 100 nM) it was 32%. The “% Inhib.” value in the data set with human integrin α4 (Table 6, 300 nM (highest dose)) is 61%.
For “107248 (antisense CTGAGTCTGTTTTCCATTCT; chemistry not given here) [compound 107248]”, the “% Control” value in the data set on human integrin α4 (Table 24, A375 cells, lipofectin, as Example 8) came to 34%. Further, the “reduction of integrin α4 mRNA levels compared to control” value in the data set with human integrin α4 mRNA (0.3 μM) is “approximately 23%”; in the data set with human integrin α4 mRNA (1 μM), approximately 38%; in the data set on human integrin α4 mRNA (3 μM) it was approximately 70%; in the data set on human integrin α4 mRNA (10 μM), approximately 80%; with human integrin α4 mRNA (30 μM), approximately 85%.
